Laboratory results taken from paper PMC9848300, “Discovery of novel enasidenib analogues targeting inhibition of mutant isocitrate dehydrogenase 2 as antileukaemic agents” (Journal of Enzyme Inhibition and Medicinal Chemistry, 2023).
Where two headings read alike, the source gives them in different places.

Key:
[1] = test system: SR; assay: NCI 60 antitumor screening (single dose / five doses); type: cell-based; conditions: Homo sapiens, read-out: Growth inhibition percentage (GI %)
[2] = test system: A498; assay: as above; type: cell-based; conditions: Homo sapiens
[3] = test system: COLO 205; assay: as above; type: cell-based; conditions: Homo sapiens
[4] = test system: 60 human subpanel cancer cell lines; assay: NCI 60 antitumor screening, mean over the panel (single dose); type: cell-based; conditions: mean over 60 cancer cell lines, single dose 10 μM
How it was run: (§1)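 Read-out is percent growth (G%) of treated cancer cells relative to untreated, converted to percent inhibition as 100 − G%. Each compound was applied once at 10 μM across 60 human tumour lines under the NCI protocol.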

[5] = test system: EKVX; assay: NCI 60 antitumor screening (single dose / five doses); type: cell-based; conditions: Homo sapiens, read-out: Growth inhibition percentage (GI %)
[6] = test system: 786-0; assay: as above; type: cell-based; conditions: Homo sapiens
[7] = test system: RXF 393; assay: as above; type: cell-based; conditions: Homo sapiens
[8] = test system: SW-620; assay: as above; type: cell-based, human; conditions: Homo sapiens
[9] = test system: RPMI-8226; assay: as above; type: cell-based; conditions: Homo sapiens
[10] = test system: SF-539; assay: as above; type: cell-based; conditions: Homo sapiens
[11] = test system: CCRF-CEM; assay: as above; type: cell-based; conditions: Homo sapiens, read-out: Growth inhibition percentage (GI %)
[12] = test system: BT-549; assay: as above; type: cell-based; conditions: Homo sapiens
[13] = test system: UO-31; assay: as above; type: cell-based; conditions: Homo sapiens
[14] = test system: SK-MEL-2; assay: as above; type: cell-based; conditions: Homo sapiens
[15] = test system: NCI/ADR-RES; assay: as above; type: cell-based; conditions: Homo sapiens, read-out: Growth inhibition percentage (GI %)
[16] = test system: HCT-15; assay: as above; type: cell-based; conditions: Homo sapiens
[17] = test system: MDA-MB-468; assay: as above; type: cell-based; conditions: Homo sapiens
[18] = test system: UACC-62; assay: as above; type: cell-based; conditions: Homo sapiens
[19] = test system: IGROV1; assay: as above; type: cell-based; conditions: Homo sapiens
[20] = test system: TK-10; assay: NCI 60 antitumor screening (single dose); type: cell-based; conditions: Homo sapiens
How it was run: (§2)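 Values are GI% (100 − G%) from the NCI 60-line single-dose screen, compound at 10 μM.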

[21] = test system: HCC-2998; assay: NCI 60 antitumor screening (single dose); type: cell-based; conditions: Homo sapiens; HCC-2998 (colon cancer), single dose 10 μM; read-out: Growth inhibition percentage (GI %)
How it was run: as §1

[22] = test system: SNB-19; assay: NCI 60 antitumor screening (single dose); type: cell-based; conditions: Homo sapiens; SNB-19 (CNS cancer), single dose 10 μM; read-out: Growth inhibition percentage (GI %)
How it was run: as §2

[23] = test system: LOX IMVI; assay: NCI 60 antitumor screening (single dose / five doses); type: cell-based; conditions: Homo sapiens, read-out: Growth inhibition percentage (GI %)
[24] = test system: HCT-116; assay: as above; type: cell-based; conditions: Homo sapiens
[25] = test system: SF-295; assay: as above; type: cell-based; conditions: Homo sapiens
[26] = test system: MDA-MB-231/ATCC; assay: as above; type: cell-based; conditions: Homo sapiens
[27] = test system: HOP-92; assay: as above; type: cell-based; conditions: Homo sapiens
[28] = test system: MDA-MB-435; assay: as above; type: cell-based; conditions: Homo sapiens
[29] = SR (leukaemia), single dose 10 μM
[30] = A498 (renal cancer), single dose 10 μM, read-out: Growth inhibition percentage (GI %)
[31] = COLO 205 (colon cancer), single dose 10 μM, read-out: Growth inhibition percentage (GI %)
[32] = EKVX (non-small cell lung cancer), single dose 10 μM
[33] = 786-0, 786-0 (renal cancer), single dose 10 μM, read-out: Growth inhibition percentage (GI %)
[34] = RXF 393 (renal cancer), single dose 10 μM, read-out: Growth inhibition percentage (GI %)
[35] = SW-620 (colon cancer), single dose 10 μM, read-out: Growth inhibition percentage (GI %)
[36] = RPMI-8226 (leukaemia), single dose 10 μM, read-out: Growth inhibition percentage (GI %)
[37] = SF-539 (CNS cancer), single dose 10 μM, read-out: Growth inhibition percentage (GI %)
[38] = CCRF-CEM (leukaemia), single dose 10 μM
[39] = BT-549 (breast cancer), single dose 10 μM, read-out: Growth inhibition percentage (GI %)
[40] = UO-31 (renal cancer), single dose 10 μM, read-out: Growth inhibition percentage (GI %)
[41] = SK-MEL-2 (melanoma), single dose 10 μM, read-out: Growth inhibition percentage (GI %)
[42] = NCI/ADR-RES (ovarian cancer), single dose 10 μM
[43] = HCT-15 (colon cancer), single dose 10 μM, read-out: Growth inhibition percentage (GI %)
[44] = MDA-MB-468 (breast cancer), single dose 10 μM, read-out: Growth inhibition percentage (GI %)
[45] = UACC-62 (melanoma), single dose 10 μM, read-out: Growth inhibition percentage (GI %)
[46] = IGROV-1, IGROV1 (ovarian cancer), single dose 10 μM, read-out: Growth inhibition percentage (GI %)
[47] = TK-10 (renal cancer), single dose 10 μM, read-out: Growth inhibition percentage (GI %)
[48] = LOX IMVI (melanoma), single dose 10 μM
[49] = HCT-116 (colon cancer), single dose 10 μM, read-out: Growth inhibition percentage (GI %)
[50] = SF-295 (CNS cancer), single dose 10 μM, read-out: Growth inhibition percentage (GI %)
[51] = MDA-MB-231/ATCC (breast cancer), single dose 10 μM, read-out: Growth inhibition percentage (GI %)
[52] = HOP-92 (non-small cell lung cancer), single dose 10 μM, read-out: Growth inhibition percentage (GI %)
[53] = MDA-MB-435 (melanoma), single dose 10 μM, read-out: Growth inhibition percentage (GI %)

Oc1ccc(/C=N/Nc2nc(N/N=C/c3ccc(O)c(O)c3)nc(N3CCOCC3)n2)cc1O [compound 6j, 4-[(1e)-(2-{4-[(E)-2-[(3,4-Dihydroxyphenyl)methylidene]hydrazin-1-yl]-6-(morpholin-4-yl)-1,3,5-triazin-2-yl}hydrazin-1-ylidene)methyl]benzene-1,2-diol]
inhibition at 10 µM [1, 29]: 8.3%
inhibition at 10 µM [2, 30]: 2.87%
inhibition at 10 µM [3, 31]: -7.11%
Mean GI % [4]: -2.12%
inhibition at 10 µM [5, 32]: 5.31%
inhibition at 10 µM [6, 33]: -3.75%
inhibition at 10 µM [7, 34]: -20.4%
inhibition at 10 µM [8, 35]: -3.6%
inhibition at 10 µM [9, 36]: -3.09%
inhibition at 10 µM [10, 37]: -3.18%
inhibition at 10 µM [11, 38]: -2.09%
inhibition at 10 µM [12, 39]: -9.12%
inhibition at 10 µM [13, 40]: 15.4%
inhibition at 10 µM [14, 41]: 3.04%
inhibition at 10 µM [15, 42]: -5.32%
inhibition at 10 µM [16, 43]: -2.93%
inhibition at 10 µM [17, 44]: 6.49%
inhibition at 10 µM [18, 45]: 2.19%
inhibition at 10 µM [19, 46]: -6.08%
inhibition at 10 µM [20, 47]: -9.62%
inhibition at 10 µM [21]: -6.4%
inhibition at 10 µM [22]: -4.37%
inhibition at 10 µM [23, 48]: -5.85%
inhibition at 10 µM [24, 49]: -6.01%
inhibition at 10 µM [25, 50]: -3.97%
inhibition at 10 µM [26, 51]: 1.27%
inhibition at 10 µM [27, 52]: -7.35%
inhibition at 10 µM [28, 53]: -3.12%

O=[N+]([O-])c1cc(/C=N/Nc2nc(N/N=C/c3ccc(Cl)c([N+](=O)[O-])c3)nc(N3CCOCC3)n2)ccc1Cl [compound 6i, 2,4-Bis[(E)-2-[(4-Chloro-3-nitrophenyl)methylidene]hydrazin-1-yl]-6-(morpholin-4-yl)-1,3,5-triazine]
inhibition at 10 µM ([1]; SR): 18.5%
inhibition at 10 µM ([2]; A498, read-out: Growth inhibition percentage (GI %)): -10.3%
inhibition at 10 µM ([3]; COLO 205, read-out: Growth inhibition percentage (GI %)): -4.66%
Mean GI % [4]: 0.67%
inhibition at 10 µM ([5]; EKVX): 0.07%
inhibition at 10 µM ([6]; 786-0, read-out: Growth inhibition percentage (GI %)): -8.76%
inhibition at 10 µM ([7]; RXF 393, read-out: Growth inhibition percentage (GI %)): -20.7%
inhibition at 10 µM ([8]; SW-620, read-out: Growth inhibition percentage (GI %)): -6.94%
inhibition at 10 µM ([9]; RPMI-8226, read-out: Growth inhibition percentage (GI %)): 42.8%
inhibition at 10 µM ([10]; SF-539, read-out: Growth inhibition percentage (GI %)): 6.38%
inhibition at 10 µM ([11]; CCRF-CEM): 12.2%
inhibition at 10 µM ([12]; BT-549, read-out: Growth inhibition percentage (GI %)): -0.85%
inhibition at 10 µM ([13]; UO-31, read-out: Growth inhibition percentage (GI %)): 22.3%
inhibition at 10 µM ([14]; SK-MEL-2, read-out: Growth inhibition percentage (GI %)): -2.6%
inhibition at 10 µM ([15]; NCI/ADR-RES): -0.3%
inhibition at 10 µM ([16]; HCT-15, read-out: Growth inhibition percentage (GI %)): 8.38%
inhibition at 10 µM ([17]; MDA-MB-468, read-out: Growth inhibition percentage (GI %)): 27.1%
inhibition at 10 µM ([18]; UACC-62, read-out: Growth inhibition percentage (GI %)): 9.59%
inhibition at 10 µM ([19]; IGROV-1, read-out: Growth inhibition percentage (GI %)): 7.34%
inhibition at 10 µM ([20]; TK-10, read-out: Growth inhibition percentage (GI %)): -24.4%
inhibition at 10 µM [21]: -5.78%
inhibition at 10 µM [22]: 0.85%
inhibition at 10 µM ([23]; LOX IMVI): 9.76%
inhibition at 10 µM ([24]; HCT-116, read-out: Growth inhibition percentage (GI %)): 7.64%
inhibition at 10 µM ([25]; SF-295, read-out: Growth inhibition percentage (GI %)): -7.07%
inhibition at 10 µM ([26]; MDA-MB-231, read-out: Growth inhibition percentage (GI %)): 3.16%
inhibition at 10 µM ([27]; HOP-92, read-out: Growth inhibition percentage (GI %)): -20.3%
inhibition at 10 µM ([28]; MDA-MB-435, read-out: Growth inhibition percentage (GI %)): -7.52%

Clc1cccc(/C=N/Nc2nc(N/N=C/c3cccc(Cl)c3Cl)nc(N3CCOCC3)n2)c1Cl [compound 6h, 2,4-Bis[(E)-2-[(2,3-Dichlorophenyl)methylidene]hydrazin-1-yl]-6-(morpholin-4-yl)-1,3,5-triazine]
inhibition at 10 µM [1, 29]: 51.9%
inhibition at 10 µM [2, 30]: -10.5%
inhibition at 10 µM [3, 31]: 7.98%
Mean GI % [4]: 9.97%
inhibition at 10 µM [5, 32]: 24.4%
inhibition at 10 µM [6, 33]: 1.86%
inhibition at 10 µM [7, 34]: 5.06%
inhibition at 10 µM [8, 35]: -6.25%
inhibition at 10 µM [9, 36]: 12.1%
inhibition at 10 µM [10, 37]: 44.2%
inhibition at 10 µM [11, 38]: 16.5%
inhibition at 10 µM [12, 39]: 0.16%
inhibition at 10 µM [13, 40]: 16.1%
inhibition at 10 µM [14, 41]: 13.8%
inhibition at 10 µM [15, 42]: 34.2%
inhibition at 10 µM [16, 43]: 15.2%
inhibition at 10 µM [17, 44]: 32.8%
inhibition at 10 µM [18, 45]: 11.3%
inhibition at 10 µM [19, 46]: 11.2%
inhibition at 10 µM [20, 47]: -29.2%
inhibition at 10 µM [21]: -6.13%
inhibition at 10 µM [22]: 12.3%
inhibition at 10 µM [23, 48]: 31.6%
inhibition at 10 µM [24, 49]: 19.3%
inhibition at 10 µM [25, 50]: 18%
inhibition at 10 µM [26, 51]: 13.8%
inhibition at 10 µM [27, 52]: -5.67%
inhibition at 10 µM [28, 53]: -6.86%
